Measured values as given in US9173935B2, “Phospholipid drug analogs” (Telormedix SA, priority 2010, dated 2015).
Where two headings read alike, the source gives them in different places. One block for each compound: values may come before it.

What was measured:
[1] = Plasma stability, second experiment, human plasma; settings: human, plasma
Procedure: Second experiment: Test compounds (5 mM in DMSO) were diluted at the final concentration of 250 μM with ACN-MeOH 1:1.
Human plasma (1.180 ml) was spiked with 20 μl of 250 μM solution of the compound (4.16 μM final concentration) and aliquots of 50 μl volume were taken at 0, 15, 30, 60, 120 min and 5 hrs, and immediately quenched with 200 μl of a solution of Verapamil 250 ng/ml (internal standard, I.S.) in ACN:MeOH 95:5. Samples were then centrifuged for 20 min at 3000 rpm at 10° C. and analyzed as reported below. […] The supernatant fractions were analyzed by LC/MS/MS. Zero-time incubations were used as 100% values.
Stability was calculated as percentage remaining of the area ratio compound/I.S. at each time point vs. area ratio compound/I.S. at time 0 min.

[2] = Solubility, method of European Pharmacopoeia 6.0; type: physicochemical
Procedure: The method reported in the European Pharmacopoeia 6.0 was used.
Batch CH730/16/8g was tested according to the method described in E. Ph: DMSO was added in 0.1 mL portions to 103.7 mg of product and the suspension was shaken with a Vortex instrument for 3 min after each addition. […] The batches CH730/16/8c, CH730/16/8g and CH730/23/8e were then tested stirring each suspension for a longer time; 100 mg of each batch dissolved completely in 0.2 mL of DMSO after stirring for 30 minutes.

[3] = Storage stability by HPLC (solid or chloroform solution; temperature, light); type: physicochemical; settings: room temperature, natural light
PBMCs = test: IL-6 and TNF-alpha secretion in PBMCs from three donors (ELISA); type: cell-based, human; settings: read-out: EC50 values, IL-6 secretion
Procedure: EC50 values were determined for control and each drug candidate for IL-6 and TNF-alpha secretion. […] The cells were treated with TLR7 agonists for 24 hours in 7 doses. The conditioned media was removed for ELISA analyses for IL-6 and TNF-alpha, and cell survival determined by the XTT method according to the protocol from the supplier. […] Concentrations of IL-6 and TNF-alpha were determined by ELISA from R&D Systems using the Microsoft Excel Software. The results were analyzed in Graph Pad Prism in order to prepare dose-response curves, and for determination of EC50 values.

human PBMCs = test: IL-6 secretion in human PBMCs, two batches of Compound A and SC12; type: cell-based; settings: 24 h, 4 doses
Procedure: PBMCs were purified from two donors and plated into 96 well plates at 2×10^5 cells/well in RPMI media including human 2% heat inactivated AB serum, glutamine, Pen-strep and R-mercapto-ethanol. The cells were treated with TLR7 agonists for 24 h in 4 doses. The conditioned media was removed for ELISA analyses for IL-6, and the EC50 value determined for each compound and each batch.
All compounds were tested in four concentrations (10-1-0.1-0.01 micromolar).
Concentrations of IL-6 were determined by ELISA from R&D Systems using the Microsoft Excel software. The results were analyzed in Graph Pad Prism in order to prepare dose-response curves, and for determination of EC50 values.

[4] = Plasma stability, first experiment, rat plasma; type: in vitro ADME
Procedure: (§1) A 10 μl of MeOH was added to improve solubility. […] The supernatant fractions were analyzed by LC/MS/MS. […] Percent loss of substrate in incubations was determined to estimate the in vitro half life of the test compound.

[5] = Plasma stability and metabolic profiling, first experiment, rabbit plasma; type: in vitro ADME
Procedure: as §1, with “compound. […] Assignment of the structures was done by comparison of the MS/MS analysis of the spectra with the parent spectrum.” for “compound.”

[6] = Plasma stability, first experiment, minipig plasma; type: in vitro ADME
Procedure: as §1

[7] = Plasma stability and metabolic profiling, first experiment, human plasma; type: in vitro ADME
Procedure: as §1, with “compound. […] Assignment of the structures was done by comparison of the MS/MS analysis of the spectra with the parent spectrum.” for “compound.”

[8] = tested on: recombinant protein antigens from Plasmodium falciparum and Mycobacterium ulcerans; test: Pilot immunization study with adjuvanted protein antigens; type: in vivo, mice; settings: three s.c. immunizations, 10 nMol adjuvant
Procedure: A pilot immunization study was conducted using Compound A and SC12 adjuvanted protein antigens. The immunization experiments were performed with two recombinant proteins expressed in E. coli. One antigen was derived from the malaria parasite Plasmodium falciparum and the other one from Mycobacterium ulcerans, which cause the ulcerative skin disease Buruli ulcer.

RAW.264 cells = test: Intracellular uptake in RAW.264 cells (LC-MS); type: cell-based; settings: 10 microM
Procedure: 5×10^6 RAW.264 cells were adhered overnight in 10 cm tissue culture dishes. […] […] Supernatant (2 ml) and cells (pellets) were collected by trypsinization and frozen at […] for subsequent analysis by LC-MS.

- % Remaining ([1]; 0 h, 4.16 μM): 100%
- % Remaining ([1]; 1 h, 4.16 μM): 23.3 ± 1.4%
- % Remaining ([1]; 5 h, 4.16 μM): 0.01 ± 0.01%
Compound: COc1cc(N)c(Cl)cc1C(=O)OCCN1CCCCC1 [Compound M7319, 2-Piperidinoethyl 4-amino-5-chloro-2-methoxybenzoate, reference compound]

Compound: CCCCCCCC/C=C\CCCCCCCC(=O)OCC(COP(=O)(O)OCCNC(=O)c1ccc(Cn2c(=O)[nH]c3c(N)nc(OCCOC)nc32)cc1)OC(=O)CCCCCCC/C=C\CCCCCCCC (stereo not shown) [Compound A, 2-(4-((6-amino-2-(2-methoxyethoxy)-8-oxo-7H-purin-9(8H)-yl)methyl)benzamido)ethyl 2,3-bis(oleoyloxy)propyl phosphate]
- Solubility in DMSO [2]: soluble
- Solubility in acetonitrile [2]: not soluble
- Solubility in water [2]: not soluble
- Purity (HPLC) ([3]; retest 12 Jun. 2009 (test 20 May 2009)): Purity: 67.2%
- Purity (HPLC) ([3]; retest 16 Jun. 2009 (test 10 Jun. 2009)): Purity: 44.8%
- Purity (HPLC) ([3]; retest 17 Jun. 2009 (test 20 May 2009)): Purity: 58.9%
- Purity (HPLC) ([3]; retest 18 Jun. 2009 (test 11 Jun. 2009)): Purity: 71.5%
- Purity (HPLC) ([3]; test date 10 Jun. 2009): Purity: 57.5%
- Purity (HPLC) ([3]; test date 11 Jun. 2009): Purity: 81.4%
- Purity (HPLC) ([3]; test date 20 May 2009): Purity: 89.6%
- EC50 (PBMCs; D1, first experiments on three donors): 460 nM
- EC50 (PBMCs; D2, first experiments on three donors): 740 nM
- EC50 (PBMCs; D3, first experiments on three donors): 255 nM
- EC50 (human PBMCs; Donor 1, listed as Compound A new 20289): 721 nM
- EC50 (human PBMCs; Donor 1, listed as Compound A old Ch730/25/8): 734 nM
- EC50 (human PBMCs; Donor 2, listed as Compound A new 20289): 521 nM
- EC50 (human PBMCs; Donor 2, listed as Compound A old Ch730/25/8): 392 nM
- Plasma stability classification [4]: unstable
- % Remaining ([4]; 0 min): 100%
- % Remaining ([4]; 15 min): 73.8 ± 4.5%
- % Remaining ([4]; 30 min): 67.1 ± 8.8%
- % Remaining ([4]; 60 min): 25.2 ± 0.5%
- % Remaining ([4]; 120 min): 21.4 ± 1.9%
- % Remaining ([4]; 300 min): 15.3 ± 1.0%
- Plasma stability classification [5]: unstable
- % Remaining ([5]; 0 min): 100%
- Metabolites found ([5]; 30 and 120 min, 50 μM): Three metabolites
- % Remaining ([5]; 15 min): 38.7 ± 3.4%
- % Remaining ([5]; 30 min): 10.2 ± 1.0%
- % Remaining ([5]; 60 min): 7.4 ± 0.1%
- % Remaining ([5]; 120 min): 4.4 ± 0.7%
- % Remaining ([5]; 300 min): 1.9 ± 0.1%
- Plasma stability classification [6]: unstable
- % Remaining ([6]; 0 min): 100%
- % Remaining ([6]; 15 min): 102.4 ± 3.3%
- % Remaining ([6]; 30 min): 73.3 ± 5.0%
- % Remaining ([6]; 60 min): 78.6 ± 2.9%
- % Remaining ([6]; 120 min): 33.7 ± 2.3%
- % Remaining ([6]; 300 min): 10.8 ± 0.3%
- Metabolites found ([7]; 60 and 300 min, 50 μM): two of them
- Plasma stability classification ([7]; first experiment): unstable
- % Remaining ([7]; first experiment, 0 min): 100%
- % Remaining ([7]; first experiment, 15 min): 99.7 (*) %
- % Remaining ([7]; first experiment, 30 min): 40.4 ± 15.5%
- % Remaining ([7]; first experiment, 60 min): 36.1 ± 7.6%
- % Remaining ([7]; first experiment, 120 min): 17.4 ± 2.6%
- % Remaining ([7]; first experiment, 300 min): 7.8 ± 3.3%
- % Remaining ([1]; 0 h): 100%
- % Remaining ([1]; 0.25 h): 100.6 ± 14.5%
- % Remaining ([1]; 0.5 h): 90.3 ± 13.3%
- % Remaining ([1]; 2 h): 69.8 ± 16.8%
- Local side effects (swelling, ulcerations) [8]: No local side effects
- Intracellular Concentration (RAW.264 cells; incubation 1 hours): 5.50 % of total
- Intracellular Concentration (RAW.264 cells; incubation 6 hours): 4.27 % of total
- Intracellular Concentration (RAW.264 cells; incubation 16 hours): 1.53 % of total
